Key:
[1] = patients with POMC and LEPR deficiency obesity; cited from earlier work
[2] = Phase 2 hypothalamic obesity study: daily hunger questionnaire (most hungry last 24 hrs), weekly average of daily most hunger score; type: in vivo, human; settings: patients ≥12 years of age
Text: (§1) The secondary endpoints included determination of: • Composite proportion of patients aged ≥6 to <18 years with ≥0.2 reduction of BMI Z-score and patients aged ≥18 years with 5% reduction of body weight from baseline after 16 weeks of setmelanotide • Proportion of patients aged ≥6 to <18 years with ≥0.2 reduction of BMI Z-score from baseline after 16 weeks of setmelanotide • Proportion of patients aged 18 years with 5% reduction of body weight from baseline after 16 weeks of setmelanotide • Change from baseline in waist circumference in patients aged 18 years after 16 weeks of setmelanotide treatment. • Change in hunger in response to 16 weeks of setmelanotide treatment as measured by change from baseline in daily and global hunger scores. • Safety and tolerability assessed by the frequency and severity of AEs, vital signs, and laboratory evaluations. • Change from baseline in metabolic parameters following treatment with setmelanotide, including fasting glucose, HbA1c, lipid profiles (total-, high-density lipoprotein [HDL]-, and low-density lipoprotein [LDL]-cholesterol, triglycerides). • Proportion of patients, regardless of age, with ≥5% body weight loss from baseline after 16 weeks of setmelanotide treatment compared to a historic control of <5% in this patient population. • Change from baseline in BMI, weight, and waist circumference, regardless of age, after 16 weeks of setmelanotide treatment. • Change from baseline in BMI Z-score in patients aged 6 to 12 years and in those aged 6 to <18 years.
All screening evaluations were completed and reviewed to confirm that potential patients meet all eligibility criteria. […]
The daily hunger questionnaire as assessed in patients ≥12 years of age also achieved a clinically meaningful diminution quantifying the most hungry the patient has experienced over the last 24 hours, with a mean reduction in the hunger score of −2.66 after 16 weeks. […]

[3] = clinical trials; cited from earlier work
[4] = Phase 2 open-label study of setmelanotide SC daily in patients with hypothalamic obesity: BMI, BMI Z-score, body weight after 16 weeks; type: in vivo, human; settings: for Weight (kg), Week 16 Actual, Mean (SD): 16 weeks of treatment
Experimental: This example describes a phase 2 study that seeks to evaluate the change in body weight in response to an exemplary MC4R agonist, e.g., setmelanotide (i.e., SEQ ID NO: 140) administered subcutaneously (SC) daily in patients with hypothalamic obesity (HO).
Setmelanotide, 10 mg/mL in a sterile solution for injection, was provided at 1.0, 2.0, 3.0 mg QD for patients 6 to <16 years of age, and 2.0 to 3.0 mg QD for patients ≥16 years of age.
The primary endpoint of this study was to identify a proportion of patients with ≥5% reduction from baseline in BMI after 16 weeks of setmelanotide treatment compared to a historic control of <5% in this patient population.
as §1
This study describes a Phase 2, multicenter, open-label, proof of concept study designed to assess the effect of setmelanotide on weight loss within a population affected by HO. Approximately 15 patients aged 6 to 40 years, inclusive, were enrolled across approximately 3-5 clinical sites in the United States (US).
Patients who were determined to be eligible, based on Screening assessments, returned to the clinic for the Baseline Visit (Visit 2) and received the first setmelanotide dose. The starting setmelanotide dose was dependent on patient age; however, for all patients, the setmelanotide dose was titrated to a final dose of 3.0 mg/day (initial titration phase), as follows
• Starting at Baseline (Day 1; Visit 2) through approximately Day 14, patients received setmelanotide 1.0 mg/day. • Starting at approximately Day 15 through 28, patients received setmelanotide 2.0 mg/day.
• Starting at Baseline (Day 1; Visit 2) through approximately Day 14, patients received setmelanotide 2.0 mg/day. • Starting at approximately Day 15, patients received setmelanotide 3.0 mg/day; patients continue to receive setmelanotide 3.0 mg/day for 14 weeks.
Patients returned to the study center for Visits 3, 4, and 5 (Weeks 4, 8, and 12, respectively), with each of these visits conducted approximately 4 weeks apart. All patients returned to the study center at Week 16 (Visit 6) and received the last setmelanotide injection. Study endpoints were analyzed at Visit 6.
All patients received open-label setmelanotide in this study. Setmelanotide was provided as a preserved, multidose solution for injection to be administered SC, QD. It was formulated as a 10 mg/mL sterile, preserved, clear to slightly opalescent, colorless to slightly colored solution, practically free of visible particles. […]

[5] = Phase 2 hypothalamic obesity study: safety and tolerability (TEAEs, SAEs); type: in vivo, human
Text: as §1
All screening evaluations were completed and reviewed to confirm that potential patients meet all eligibility criteria. Exemplary evaluations included a medical history review, physical examination, comprehensive skin examination, measurement of height, weight, waist circumference, body composition assessment, pregnancy test (if applicable), daily hunger questionnaires, global hunger assessment, and evaluation of PHQ-A or PHQ-9, C—SSRS, SF-12 or SF-10, IWQOL, FSH, HbA1c, and fasting lipid panel. Adjustments were made depending upon specific circumstances and in consultation with the investigator. Immediate safety concerns were discussed immediately upon occurrence or awareness to determine if the patient should continue or discontinue study treatment.
The most commonly reported TEAE was nausea (63.6%).

[6] = Long-term extension study of setmelanotide, hypothalamic obesity subpopulation; type: in vivo, human
Experimental: This example describes a long-term extension study of the use of setmelanotide in treating hypothalamic obesity, and further to investigate the safety and tolerability of chronic setmelanotide administration for up to 5 years from initiation of treatment.
Setmelanotide, 10 mg/mL in a sterile solution, QD. Dosing was continued at the dosage of the cessation of the previous setmelanotide trial, (e.g., 3.0 mg QD for most patients enrolled in the setmelanotide trial for treating subjects with hypothalamic obesity), unless a change is determined necessary by the Investigator, e.g., for safety, tolerability, TEAE, SAE, or other concern.
The objective of this study was to examine the long-term safety parameters of chronic, daily subcutaneous setmelanotide injections for a period of up to 5 years. In order to assess this primary endpoint, the occurrence of TEAEs and SAEs were tracked, in addition to other clinical data including any new emergence of injection site reactions, changes in resting heart rate or blood pressure, laboratory workup (e.g., fasting glucose, HbA1c, lipid profiles (total-, high-density lipoprotein [HDL]-, and low-density lipoprotein [LDL]-cholesterol, triglycerides), liver enzymes, changes in physical examination (e.g., weight, BMI, BMI Z-Score), and cardiac changes (e.g., as measured by an electrocardiogram (ECG). […]

CC(=O)N[C@@H](CCCNC(=N)N)C(=O)N[C@H]1CSSC[C@@H](C(N)=O)NC(=O)[C@H](Cc2c[nH]c3ccccc23)NC(=O)[C@H](CCCNC(=N)N)NC(=O)[C@@H](Cc2ccccc2)NC(=O)[C@H](Cc2cnc[nH]2)NC(=O)[C@@H](C)NC1=O [setmelanotide, Ac-Arg-c(Cys-D-Ala-His-D-Phe-Arg-Trp-Cys)-NH2]
Reduction in hunger [1]: statistically significant and clinically meaningful reduction in hunger
Weight loss [1]: rapid and sustained significant and clinically meaningful weight loss
Weekly average of daily most hunger score, Week 16 Actual, Median ([2]; N 7): 5.67
Weekly average of daily most hunger score, Week 16 Change from Baseline, Median ([2]; N 7): −1.71
Weekly average of daily most hunger score (Most Hungry Last 24 hrs), Week 16 Actual, Mean (SD) ([2]; N 7 at Week 16): 4.55 (2.84)
Effect on blood pressure [3]: has not been shown to adversely affect blood pressure
Weight (kg), Week 16 Actual, Median ([4]; 6-<18 years (N = 9)): 93.07 kg
Weight (kg), Week 16 Change from Baseline, Mean (SD) ([4]; 6-<18 years (N = 9)): -17.83 kg
Weight (kg), Week 16 Change from Baseline, Median ([4]; 6-<18 years (N = 9)): -16.77 kg
Weight, Week 16 Percent Change from Baseline, Mean (SD) ([4]; 6-<18 years (N = 9)): −17.80%
Weight, Week 16 Percent Change from Baseline, Median ([4]; 6-<18 years (N = 9)): −14.12%
Weight (kg), Week 16 Actual, Mean (SD) ([4]; 6-<18 years (N = 9)): 89.98 kg
Mean BMI reduction ([4]; 9 completers at 16 weeks): −19.5%
Mean change in BMI Z score ([4]; FAS set, after 16 weeks): −1.1 point
Weight (kg), Week 16 Actual, Median ([4]; Total (N = 11)): 94.27 kg
Weight (kg), Week 16 Change from Baseline, Mean (SD) ([4]; Total (N = 11)): -15.87 kg
Weight (kg), Week 16 Change from Baseline, Median ([4]; Total (N = 11)): -13.90 kg
Weight, Week 16 Percent Change from Baseline, Mean (SD) ([4]; Total (N = 11)): −15.79%
Weight, Week 16 Percent Change from Baseline, Median ([4]; Total (N = 11)): −13.68%
Weight (kg), Week 16 Actual, Mean (SD) ([4]; Total (N = 11)): 91.22 kg
Mean percent change in body weight ([4]; after 16 weeks of setmelanotide, SD 7.9%): −17.8%
Reduction in BMI Z score ([4]; all patients less than 18 years old, 16 weeks): statistically significant reduction in BMI Z score
Proportion of patients achieving at least a 10% reduction in BMI ([4]; completers (n=9), 16 weeks, p<0.0001): 100%
Proportion of patients achieving greater than or equal to 5% reduction in BMI (primary endpoint) ([4]; full analysis set (n=11), 16 weeks, p<0.0001): 100%
Reduction in weight ([4]; pediatric and adult patients, 16 weeks of daily SC therapy): statistically significant and clinically meaningful reduction in weight
Weight (kg), Week 16 Actual, Median ([4]; ≥18 years (N = 2)): 96.78 kg
Weight (kg), Week 16 Change from Baseline, Mean (SD) ([4]; ≥18 years (N = 2)): -7.02 kg
Weight (kg), Week 16 Change from Baseline, Median ([4]; ≥18 years (N = 2)): -7.02 kg
Weight, Week 16 Percent Change from Baseline, Mean (SD) ([4]; ≥18 years (N = 2)): −6.76%
Weight, Week 16 Percent Change from Baseline, Median ([4]; ≥18 years (N = 2)): −6.76%
Weight (kg), Week 16 Actual, Mean (SD) ([4]; ≥18 years (N = 2)): 96.78 kg
Safety and tolerability of setmelanotide treatment ([5]; 16 weeks, up to 3.0 mg/day SC): consistent with established data
Incidence of nausea (most commonly reported TEAE) ([5]; eleven patients): 63.6%
Skin hyperpigmentation, e.g., melanocytic naevus, patients reporting ([5]; eleven patients): two of the eleven patients
Patients with at least one treatment emergent adverse event (TEAE) ([5]; eleven patients, related or unrelated to administration): All eleven of the patients
SAE related to Clostridium dificile colitis ([5]; one patient, able to complete the study): classified as severe, but not related to setmelanotide therapy
BMI in long-term extension ([6]; 5 patients from the Phase 2 study, additional 3-8 months): all of the patients but one continued to further see reductions in BMI
BMI of the fifth patient (increase in BMI in the extension period) ([6]; relative to BMI at initiation of the Phase 2 study): did not return to his or her original BMI
